# Measured values: ChEMBL document CHEMBL1131722, “P1, P2'-linked macrocyclic amine derivatives as matrix metalloproteinase inhibitors” (Bioorg Med Chem Lett, 1999)
# pKi: −log10 of the molar value.
# Experiments:
# [1] = target: Matrix metalloproteinase-9 (Homo sapiens, UniProt P14780); assay: Inhibition of Matrix metalloprotease-9 (MMP-9)
# Interstitial collagenase = target: T1, Interstitial collagenase (Homo sapiens, UniProt P03956); assay: Inhibition of Matrix metalloprotease-1 (MMP-1)
# T1 sequence (P03956 whole entry): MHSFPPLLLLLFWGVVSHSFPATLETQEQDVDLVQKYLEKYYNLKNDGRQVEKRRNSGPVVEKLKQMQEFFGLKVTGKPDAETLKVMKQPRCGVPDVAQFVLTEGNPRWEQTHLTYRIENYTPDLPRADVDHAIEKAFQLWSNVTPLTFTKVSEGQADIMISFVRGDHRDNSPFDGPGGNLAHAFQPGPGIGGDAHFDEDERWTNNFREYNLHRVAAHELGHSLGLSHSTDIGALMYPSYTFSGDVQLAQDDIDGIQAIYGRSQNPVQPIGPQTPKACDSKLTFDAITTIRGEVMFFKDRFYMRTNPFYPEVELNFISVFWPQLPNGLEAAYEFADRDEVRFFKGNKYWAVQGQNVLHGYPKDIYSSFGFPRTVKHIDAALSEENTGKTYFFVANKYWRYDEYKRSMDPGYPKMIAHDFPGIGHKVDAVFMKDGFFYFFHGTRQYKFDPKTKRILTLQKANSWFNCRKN
# Stromelysin-1 = Stromelysin-1 (Homo sapiens, UniProt P08254); assay: Inhibition of Matrix metalloprotease-3 (MMP-3)
# Neutrophil collagenase = Neutrophil collagenase (Homo sapiens, UniProt P22894); assay: Inhibition of Matrix metalloprotease-8 (MMP-8)
# Neutrophil collagenase, sequence (P22894 whole entry): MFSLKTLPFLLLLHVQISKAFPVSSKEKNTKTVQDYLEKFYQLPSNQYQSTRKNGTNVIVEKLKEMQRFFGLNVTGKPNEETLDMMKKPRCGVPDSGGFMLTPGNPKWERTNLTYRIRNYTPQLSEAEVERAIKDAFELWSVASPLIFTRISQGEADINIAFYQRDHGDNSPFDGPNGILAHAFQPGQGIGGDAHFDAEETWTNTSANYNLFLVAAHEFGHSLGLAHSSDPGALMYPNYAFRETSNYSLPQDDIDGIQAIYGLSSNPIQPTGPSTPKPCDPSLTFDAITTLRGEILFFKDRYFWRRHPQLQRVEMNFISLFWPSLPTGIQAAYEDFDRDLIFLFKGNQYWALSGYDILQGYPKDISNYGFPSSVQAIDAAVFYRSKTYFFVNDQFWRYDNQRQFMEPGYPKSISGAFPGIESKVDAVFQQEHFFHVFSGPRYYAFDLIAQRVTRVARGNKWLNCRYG
# Matrix metalloproteinase-9, sequence (P14780 whole entry): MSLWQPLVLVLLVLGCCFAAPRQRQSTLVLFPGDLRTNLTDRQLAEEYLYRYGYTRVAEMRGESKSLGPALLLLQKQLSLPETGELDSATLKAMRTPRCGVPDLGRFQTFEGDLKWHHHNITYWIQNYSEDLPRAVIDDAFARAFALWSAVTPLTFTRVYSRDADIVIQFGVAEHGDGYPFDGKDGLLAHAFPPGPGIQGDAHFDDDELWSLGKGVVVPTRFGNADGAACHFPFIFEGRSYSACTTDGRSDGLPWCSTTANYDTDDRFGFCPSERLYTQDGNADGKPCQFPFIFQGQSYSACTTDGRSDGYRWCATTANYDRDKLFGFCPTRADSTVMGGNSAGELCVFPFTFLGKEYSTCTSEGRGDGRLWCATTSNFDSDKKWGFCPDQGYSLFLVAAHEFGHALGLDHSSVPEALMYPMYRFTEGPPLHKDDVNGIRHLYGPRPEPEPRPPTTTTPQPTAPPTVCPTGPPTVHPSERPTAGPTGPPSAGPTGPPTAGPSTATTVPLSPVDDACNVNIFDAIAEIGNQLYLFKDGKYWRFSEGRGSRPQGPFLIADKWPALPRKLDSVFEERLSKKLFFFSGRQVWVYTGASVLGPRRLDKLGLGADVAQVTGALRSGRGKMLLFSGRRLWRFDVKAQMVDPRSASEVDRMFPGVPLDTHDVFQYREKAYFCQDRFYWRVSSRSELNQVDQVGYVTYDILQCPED
# Stromelysin-1, sequence (P08254 whole entry): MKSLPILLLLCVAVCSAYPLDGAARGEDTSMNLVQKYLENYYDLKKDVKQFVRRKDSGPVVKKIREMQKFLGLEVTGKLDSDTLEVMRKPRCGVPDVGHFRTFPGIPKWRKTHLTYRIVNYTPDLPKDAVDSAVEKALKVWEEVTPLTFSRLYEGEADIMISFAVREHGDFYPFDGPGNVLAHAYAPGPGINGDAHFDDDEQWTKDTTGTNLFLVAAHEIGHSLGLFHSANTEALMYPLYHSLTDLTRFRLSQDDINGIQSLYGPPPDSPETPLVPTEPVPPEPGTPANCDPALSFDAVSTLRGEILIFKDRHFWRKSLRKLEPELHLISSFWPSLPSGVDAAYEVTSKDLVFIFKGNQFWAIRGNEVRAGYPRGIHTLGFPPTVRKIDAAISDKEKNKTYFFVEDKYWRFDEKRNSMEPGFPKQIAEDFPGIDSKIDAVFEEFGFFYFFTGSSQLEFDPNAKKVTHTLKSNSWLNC
pKi [1],pKi (Interstitial collagenase),pKi (Stromelysin-1),pKi (Neutrophil collagenase),SMILES
8.70,6.96,,,CNC(=O)[C@@H]1CCCN(S(=O)(=O)c2ccccc2)CCCCO[C@H](C(=O)NO)[C@@H](CCCc2ccccc2)C(=O)N1
8.22,6.61,7.42,,CNC(=O)[C@@H]1CCCN(C(C)=O)CCCCO[C@H](C(=O)NO)[C@@H](CCCc2ccccc2)C(=O)N1
7.72,5.97,6.43,7.89,CNC(=O)[C@@H]1CCCN(C(=O)OC(C)(C)C)CCCCO[C@H](C(=O)NO)[C@@H](CCCc2ccccc2)C(=O)N1
7.68,6.30,6.58,8.40,CNC(=O)[C@@H]1CCCNCCCCO[C@H](C(=O)NO)[C@@H](CCCc2ccccc2)C(=O)N1
7.89,6.36,6.57,8.15,CNC(=O)[C@@H]1CCCN(C(C)=O)CC(C)CO[C@H](C(=O)NO)[C@@H](CCCc2ccccc2)C(=O)N1 (some centres not stated)
